Source: ChEMBL document CHEMBL4725227, “Dual-Target Inhibitors Based on HDACs: Novel Antitumor Agents for Cancer Therapy” (J Med Chem, 2020)
pIC50: −log10 of the molar value.

Key:
Histone deacetylase = experiment: Inhibition of HDAC (unknown origin); assay type: protein assay, Homo sapiens
Histone deacetylase 1 = Histone deacetylase 1 (Homo sapiens, UniProt Q13547); experiment: Inhibition of HDAC1 (unknown origin)
[1] = target: Bromodomain-containing protein 4 (Homo sapiens, UniProt O60885); experiment: Inhibition of BRD4 (unknown origin)
THP-1 = experiment: Growth inhibition of human THP-1 cells; assay type: functional
A549 = experiment: Cytotoxicity against human A549 cells assessed as reduction in cell viability by MTT assay
A-431 = experiment: Cytotoxicity against human A-431 cells assessed as reduction in cell viability by MTT assay; assay type: functional, cell-based
MCF7 [2] = experiment: Cytotoxicity against human MCF7 cells assessed as reduction in cell viability in presence of SAHA by MTT assay; assay type: functional, cell-based
MCF7 [3] = experiment: Cytotoxicity against human MCF7 cells assessed as reduction in cell viability by MTT assay; assay type: functional, cell-based
MDA-MB-231 = experiment: Cytotoxicity against human MDA-MB-231 cells assessed as reduction in cell viability by MTT assay; assay type: functional, cell-based
[4] = target: Epidermal growth factor receptor (Homo sapiens, UniProt P00533); experiment: Inhibition of EGFR (unknown origin)
Chain of Epidermal growth factor receptor (P00533 whole entry): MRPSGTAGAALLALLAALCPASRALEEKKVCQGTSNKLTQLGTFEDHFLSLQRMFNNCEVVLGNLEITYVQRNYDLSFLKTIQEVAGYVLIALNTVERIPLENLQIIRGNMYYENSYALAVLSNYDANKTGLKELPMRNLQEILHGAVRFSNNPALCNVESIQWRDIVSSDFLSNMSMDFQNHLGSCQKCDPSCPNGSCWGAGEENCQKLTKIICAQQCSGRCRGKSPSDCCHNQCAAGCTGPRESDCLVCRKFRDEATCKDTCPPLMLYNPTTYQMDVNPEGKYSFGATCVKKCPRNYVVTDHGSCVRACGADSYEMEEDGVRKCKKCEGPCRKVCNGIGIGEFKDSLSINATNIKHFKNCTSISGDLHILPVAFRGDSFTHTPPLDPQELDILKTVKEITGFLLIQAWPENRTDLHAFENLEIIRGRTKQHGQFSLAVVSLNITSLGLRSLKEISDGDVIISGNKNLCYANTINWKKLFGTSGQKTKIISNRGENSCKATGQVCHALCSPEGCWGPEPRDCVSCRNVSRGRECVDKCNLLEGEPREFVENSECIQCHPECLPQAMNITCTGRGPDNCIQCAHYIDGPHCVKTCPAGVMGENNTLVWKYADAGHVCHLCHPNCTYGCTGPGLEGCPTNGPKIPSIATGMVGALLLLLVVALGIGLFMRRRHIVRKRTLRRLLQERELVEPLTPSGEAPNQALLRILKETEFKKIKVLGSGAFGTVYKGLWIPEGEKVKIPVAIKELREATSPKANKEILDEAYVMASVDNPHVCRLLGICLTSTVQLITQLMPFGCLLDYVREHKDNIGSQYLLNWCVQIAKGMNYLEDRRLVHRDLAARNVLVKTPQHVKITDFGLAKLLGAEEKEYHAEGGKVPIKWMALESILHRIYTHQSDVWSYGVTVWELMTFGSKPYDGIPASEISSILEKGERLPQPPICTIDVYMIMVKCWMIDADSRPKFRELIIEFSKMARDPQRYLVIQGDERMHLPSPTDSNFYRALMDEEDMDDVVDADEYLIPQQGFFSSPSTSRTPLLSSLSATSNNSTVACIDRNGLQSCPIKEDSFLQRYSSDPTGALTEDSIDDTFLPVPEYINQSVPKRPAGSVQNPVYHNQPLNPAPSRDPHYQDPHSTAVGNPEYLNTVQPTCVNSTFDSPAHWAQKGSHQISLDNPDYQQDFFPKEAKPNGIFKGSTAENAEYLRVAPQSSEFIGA

HeLa = experiment: Cytotoxicity against human HeLa cells assessed as reduction in cell viability by MTT assay; assay type: functional, cell-based
MDA-MB-468 = experiment: Cytotoxicity against human MDA-MB-468 cells assessed as reduction in cell viability by MTT assay; assay type: functional, cell-based
KG-1 = experiment: Cytotoxicity against human KG-1 cells assessed as reduction in cell viability by MTT assay; assay type: functional, cell-based
HT-29 = experiment: Cytotoxicity against human HT-29 cells assessed as reduction in cell viability by MTT assay; assay type: functional, cell-based

Chain of Histone deacetylase 1 (Q13547 whole entry): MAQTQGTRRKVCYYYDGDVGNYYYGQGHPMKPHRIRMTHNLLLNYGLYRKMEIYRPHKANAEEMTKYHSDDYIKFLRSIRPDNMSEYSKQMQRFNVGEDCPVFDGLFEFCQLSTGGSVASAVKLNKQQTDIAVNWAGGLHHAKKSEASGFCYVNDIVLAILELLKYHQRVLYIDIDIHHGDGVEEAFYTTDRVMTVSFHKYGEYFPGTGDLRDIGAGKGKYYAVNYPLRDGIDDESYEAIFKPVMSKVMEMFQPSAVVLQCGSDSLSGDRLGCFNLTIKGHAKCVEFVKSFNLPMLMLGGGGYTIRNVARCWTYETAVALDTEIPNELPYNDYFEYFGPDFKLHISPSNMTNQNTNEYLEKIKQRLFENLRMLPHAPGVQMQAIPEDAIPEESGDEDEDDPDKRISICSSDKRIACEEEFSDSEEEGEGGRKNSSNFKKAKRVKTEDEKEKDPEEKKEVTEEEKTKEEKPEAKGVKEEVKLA

Row | Structure (SMILES) | IC50 (Histone deacetylase) | GI50 (THP-1) | further results
1 | COc1cc(C(=O)NCCCCCCC(=O)NO)ccc1Nc1nccc(-c2cn(C)c3ccccc23)n1 | < 1 µM | – | –
2 | COc1cc(OC)c2c(=O)[nH]c(-c3cc(C)c(OCCCCC(=O)NO)c(C)c3)nc2c1 | – | – | pIC50 (Histone deacetylase 1): 6.82; pIC50 [1]: 6.17
3 | C#Cc1cccc(NC(=O)c2cc(NC(=O)CCCCCC(=O)NO)c(OC)cc2O)c1 | < 1 µM | – | –
4 | Cn1cc(-c2ccnc(Nc3ccc(C(=O)Nc4ccccc4N)cc3)n2)c2ccccc21 | < 1 µM | – | –
5 | COc1cc(OC)c2c(=O)[nH]c(-c3ccc(Oc4ccc(C(=O)NO)cn4)cc3)nc2c1 | 0.291 µM | 15.5 µM | –
6 | Cc1noc(C)c1-c1ccc2c(c1)c(CCc1ccc(F)cc1)cn2CCCCCCC(=O)NO | 0.291 µM | 15.5 µM | –
7 | COc1cc(OC)c2c(=O)[nH]c(-c3ccc(OCCCCC(=O)NO)cc3)nc2c1 | 0.291 µM | 15.5 µM | –
8 | Cc1ccccc1Cc1cn(CCCCCCC(=O)NO)c2ccc(-c3c(C)noc3C)cc12 | 0.291 µM | 15.5 µM | –
9 | Cc1noc(C)c1-c1ccc2c(c1)c(CCc1ccc(F)cc1)cn2CCCCCC(=O)NO | 0.291 µM | 15.5 µM | –
10 | Cc1noc(C)c1-c1ccc2c(c1)c(Cc1ccccc1)cn2CCCCCCC(=O)NO | 0.291 µM | 15.5 µM | –
11 | O=C(CCCCCC(=O)Nc1ccc(O)c(C(=O)Nc2ccccc2)c1)NO | < 1 µM | – | –
12 | COc1cc(OC)c2c(=O)[nH]c(-c3ccc(OCCCCCCC(=O)NO)cc3)nc2c1 | 0.291 µM | 15.5 µM | –
13 | Cc1sc2c(c1C)C(c1ccc(Cl)cc1)=N[C@@H](CC(=O)OC(C)(C)C)c1nnc(C)n1-2 | 0.291 µM | 15.5 µM | –
14 | COc1cc(C(=O)NCCCCC(=O)NO)ccc1Nc1nccc(-c2cn(C)c3ccccc23)n1 | < 1 µM | – | –
15 | C#Cc1cccc(Nc2ncnc3cc(OCCOC)c(OCCOC)cc23)c1 [ERLOTINIB] | – | – | pIC50 (A549): 4.93; pIC50 (A-431): 5.85; pIC50 (MCF7 [2]): 5.57
16 | O=C(CCCCOc1ccccc1C(=O)Nc1cccc2[nH]cnc12)NO | 2.7 µM | – | pIC50 (Histone deacetylase 1): 6.82; pIC50 [1]: 6.59

Row | Structure (SMILES) | IC50 (Histone deacetylase) | GI50 (THP-1) | further results
17 | Cc1cccc(Cc2cn(CCCCCCC(=O)NO)c3ccc(-c4c(C)noc4C)cc23)c1 | 0.291 µM | 15.5 µM | –
18 | C#Cc1cccc(NC(=O)c2cc(NC(=O)CCCCCCC(=O)NO)ccc2O)c1 | < 1 µM | – | –
19 | Cc1ccccc1Cc1cn(CCCCCC(=O)NO)c2ccc(-c3c(C)noc3C)cc12 | 0.291 µM | 15.5 µM | –
20 | C=CC(=O)Nc1cc(Nc2nccc(-c3cn(C)c4ccccc34)n2)c(OC)cc1N(C)CCN(C)C [OSIMERTINIB] | < 1 µM | – | –
21 | Cn1cc(-c2ccnc(Nc3ccc(C(=O)NCCCCCC(=O)NO)cc3)n2)c2ccccc21 | < 1 µM | – | –
22 | COc1cc(O)c(C(=O)Nc2ccc(F)c(Cl)c2)cc1NC(=O)CCCCCC(=O)NO | < 1 µM | – | –
23 | COc1cc(C(=O)NCCCCCC(=O)NO)ccc1Nc1nccc(-c2cn(C)c3ccccc23)n1 | < 1 µM | – | –
24 | C#Cc1cccc(NC(=O)c2cc(OCCCCCCC(=O)NO)ccc2O)c1 | < 1 µM | – | –
25 | Cc1ccc(Cc2cn(CCCCCC(=O)NO)c3ccc(-c4c(C)noc4C)cc23)cc1 | 0.291 µM | 15.5 µM | –
26 | COc1cc(OC)c2c(=O)[nH]c(-c3ccc(OCc4ccc(/C=C/C(=O)NO)cc4)cc3)nc2c1 | 0.291 µM | 15.5 µM | –
27 | COc1cc(OC)c2c(=O)[nH]c(-c3ccc(OC/C=C/C(=O)NO)cc3)nc2c1 | 0.291 µM | 15.5 µM | –
28 | COc1cc2/c(=N/c3ccc(Br)cc3F)nc[nH]c2cc1OCC1CCN(C)CC1 [VANDETANIB] | – | – | pIC50 (MCF7 [3]): 4.73
29 | Cn1cc(-c2ccnc(Nc3ccc(C(=O)NCCC(=O)NO)cc3)n2)c2ccccc21 | < 1 µM | – | –
30 | Cn1cc(-c2ccnc(Nc3ccc(C(=O)NCCCC(=O)NO)cc3)n2)c2ccccc21 | < 1 µM | – | –
31 | COc1cc(OC)c2c(=O)[nH]c(-c3ccc(OCCCCCCCC(=O)NO)cc3)nc2c1 | 0.291 µM | 15.5 µM | –
32 | Cn1cc(-c2ccnc(Nc3ccc(C(=O)NCCCCCCC(=O)NO)cc3)n2)c2ccccc21 | <= 1 uM | – | pIC50 (MDA-MB-231): 6.22; pIC50 [4]: 5.24; pIC50 (HeLa): 5.73; pIC50 (MDA-MB-468): 6.64; pIC50 (KG-1): 6.62; pIC50 (HT-29): 6.10
